Laboratory results published in patent US11248022B2, “Glypican-3 peptide reagents and methods” (THE REGENTS OF THE UNIVERSITY OF MICHIGAN, priority 2017, dated 2022).
Ends that are not written are not given here.

What was measured:
[1] = Biodistribution of peptide in excised organs; assay type: in vivo, mice; details: excised organs 2 hours post injection, n=5
Experimental: To assess the biodistribution of peptide probe, mice (n=5) were sacrificed 2 hours after injection of 250 μL of 300 μM ALL*-Cy5.5 using a fluorescence imaging system (IVIS Spectrum, PerkinElmer, Mass.). The organs were harvested and imaged ex vivo. Mice injected with scrambled control peptide, QLE*-Cy5.5 and free dye Cy5.5 were imaged with the same filters and exposure time. Absence of auto fluorescence was confirmed in PBS injected mice. The amount of fluorescent signal in each organ was quantified as a percentage of total fluorescence signal (p/s) in each mouse. Ex vivo fluorescence images taken of internal organs as well as resected tumor 2 hours post injection of probes are shown in FIG. 10A. Free Cy5.5 dye and Cy5.5 labeled targeting and scrambled peptides accumulated most in the liver and kidneys of mice, followed by GI tract and spleen.

[2] = Histology of vital organs post-peptide administration (acute toxicity); assay type: in vivo, mice; details: 2 hours post-injection; brain, heart, lung, liver, spleen, kidney, stomach, intestine, cecum, colon
Experimental: Vital organs were harvested post peptide administration in mice to evaluate acute toxicity of peptide probe with histology observation. Mice bearing human HCC xenograft tumors were sacrificed 2 hours post-injection of ALL*-Cy5.5.

[3] = system: Hep3B xenograft tumors; assay: Ex vivo confocal validation on Hep3B xenograft sections and normal liver; design: species or system mice
Description: The specimens were also sectioned for collection of confocal images to perform microscopic validation of peptide binding ex vivo.

ALLANHEELFQT (SEQ ID NO: 1) peptide labeled with Cy5.5 via a GGGSK linker on the C-terminus (ALLANHEELFQTGGGSK-{Cy5.5}) [ALL*-Cy5.5]
signal in the tumor vs scrambled probe, GPC3 negative tumor, free dye [1]: significantly higher | acute peptide toxicity on histology of vital organs [2]: No signs of acute peptide toxicity | cell surface staining of xenograft sections ([3]; Hep3B xenograft sections, compared with QLE*-Cy5.5): increased cell surface staining | intensity from peptide binding, HCC vs normal ([3]; n=26): 2.22 fold | staining of normal mouse liver ([3]; normal mouse liver sections): Minimal staining
